Measurements taken from patent US20240247080A1, “GLP1/GIP/NPY2 RECEPTOR TRIPLE AGONISTS” (Boehringer Ingelheim International GmbH, priority 2022, published 2024).
Like-named read-outs stand apart in the source and are kept apart here. Starred links: 1 amine or outer side, 2 acyl side, 3 side chain; linkers in the order of their positions; H or OH if unused. Positions of bridges follow the written chain, without caps; N, C: chain ends. Non-standard residues stand in square brackets, D forms with d. Groups on a side chain read outwards from the residue. Chains are numbered I, II in the order given. *: point of attachment. C20 diacid = O=C(O)CCCCCCCCCCCCCCCCCCC(=O)*; C18 diacid = O=C(O)CCCCCCCCCCCCCCCCC(=O)*; γGlu = O=C(O)[C@H](CCC(=O)[*:2])N[*:1]; εLys = N[C@@H](CCCCN[*:1])C(=O)[*:2]; Aib = CC(C)(N)C(=O)O

What was measured:
Format in all cases: cell-based
Conditions in all cases: CreLuc reporter gene assay
[1] = target: T1, hGLP1R (Homo sapiens, UniProt P43220); experiment: hGLP1R CreLuc reporter gene assay in 0.5% and 100% plasma
T1 construct: expressed in transfected cells; host or cells: HEK-293 cells carrying a CRE-luciferase reporter gene
T1 sequence (P43220 24-463): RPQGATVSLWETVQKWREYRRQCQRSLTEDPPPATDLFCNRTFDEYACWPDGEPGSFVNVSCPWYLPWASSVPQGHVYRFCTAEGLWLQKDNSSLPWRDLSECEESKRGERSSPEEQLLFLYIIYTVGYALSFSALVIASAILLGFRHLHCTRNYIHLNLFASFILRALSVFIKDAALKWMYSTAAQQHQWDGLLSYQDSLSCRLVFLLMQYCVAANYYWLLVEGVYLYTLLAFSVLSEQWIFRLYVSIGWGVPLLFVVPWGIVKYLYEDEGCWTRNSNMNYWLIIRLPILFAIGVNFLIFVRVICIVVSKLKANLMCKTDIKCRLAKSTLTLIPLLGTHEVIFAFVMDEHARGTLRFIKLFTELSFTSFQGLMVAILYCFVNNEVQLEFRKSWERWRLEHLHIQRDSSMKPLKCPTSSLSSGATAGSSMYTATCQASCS
Method in brief: (§1)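 Agonist EC50s came from 8-concentration curves over four decades, fitted by non-linear variable-slope regression of CRE-driven luciferase luminescence. Cells were exposed 4 h at 37 °C, in buffer with 0.5% human plasma or in 100% plasma; GIPR was expressed in CHO cells, GLP-1R and NPY2R in HEK cells.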

[2] = target: T2, hGIPR (Homo sapiens, UniProt P48546); experiment: hGIPR CreLuc reporter gene assay in 0.5% and 100% plasma
T2 construct: expressed in transfected cells; host or cells: CHO cells carrying a CRE-luciferase reporter gene
T2 sequence (P48546 22-466): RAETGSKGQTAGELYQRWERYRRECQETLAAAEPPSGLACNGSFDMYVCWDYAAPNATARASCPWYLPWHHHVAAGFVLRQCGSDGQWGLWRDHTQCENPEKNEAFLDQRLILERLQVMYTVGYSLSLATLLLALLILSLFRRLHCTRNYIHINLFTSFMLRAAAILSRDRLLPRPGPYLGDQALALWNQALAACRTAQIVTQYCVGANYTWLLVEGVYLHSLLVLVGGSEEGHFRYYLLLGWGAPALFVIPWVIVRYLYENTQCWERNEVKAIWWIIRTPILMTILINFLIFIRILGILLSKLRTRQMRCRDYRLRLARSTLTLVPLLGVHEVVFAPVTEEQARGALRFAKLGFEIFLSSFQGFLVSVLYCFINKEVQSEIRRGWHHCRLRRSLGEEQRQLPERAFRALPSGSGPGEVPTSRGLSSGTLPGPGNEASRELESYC
Method in brief: as §1

[3] = target: T3, hNPY2R (Homo sapiens, UniProt P49146); experiment: hNPY2R CreLuc reporter gene assay in 0.5% and 100% plasma
T3 construct: expressed in transfected cells; host or cells: HEK-293 cells carrying a CRE-luciferase reporter gene
T3 sequence (P49146 1-381): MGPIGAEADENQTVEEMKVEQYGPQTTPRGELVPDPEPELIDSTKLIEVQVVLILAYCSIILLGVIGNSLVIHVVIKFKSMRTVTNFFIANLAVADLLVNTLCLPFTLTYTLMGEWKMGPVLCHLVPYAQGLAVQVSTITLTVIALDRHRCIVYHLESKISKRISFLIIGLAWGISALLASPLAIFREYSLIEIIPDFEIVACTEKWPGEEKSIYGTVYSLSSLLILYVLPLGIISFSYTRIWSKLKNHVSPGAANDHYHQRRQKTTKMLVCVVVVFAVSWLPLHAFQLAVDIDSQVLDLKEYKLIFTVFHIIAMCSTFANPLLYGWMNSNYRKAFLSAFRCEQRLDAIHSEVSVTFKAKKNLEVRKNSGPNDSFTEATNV
Method in brief: as §1

[4] = 0.5% human plasma, read-out: hGLP1R 0.5% hP
[5] = 0.5% human plasma, read-out: hGIPR 0.5% hP
[6] = 100% human plasma, read-out: hGIPR 100% hP
[7] = 0.5% human plasma, read-out: hNPY2R 0.5% hP
[8] = 100% human plasma, read-out: hNPY2R 100% hP
[9] = 100% human plasma, read-out: hGLP1R 100% hP

Row | Compound | EC50 [1, 4] [nM] | EC50 [2, 5] [nM] | EC50 [2, 6] [nM] | EC50 [3, 7] [nM] | EC50 [3, 8] [nM] | EC50 [1, 9] [nM]
1 | CC[C@H](C)[C@H](NC(=O)[C@H](CC(C)C)NC(=O)[C@H](Cc1c[nH]c2ccccc12)NC(=O)[C@H](CCC(=O)O)NC(=O)[C@@H](NC(=O)[C@H](Cc1ccccc1)NC(=O)[C@H](C)NC(=O)C(C)(C)NC(=O)[C@H](CCC(N)=O)NC(=O)[C@H](C)NC(=O)[C@H](CCC(N)=O)NC(=O)[C@H](CCCCN)NC(=O)[C@H](CCC(=O)O)NC(=O)[C@H](CC(C)C)NC(=O)C(C)(C)NC(=O)[C@@H](NC(=O)[C@H](CO)NC(=O)[C@H](Cc1ccc(O)cc1)NC(=O)[C@H](CC(=O)O)NC(=O)[C@H](CO)NC(=O)[C@@H](NC(=O)[C@H](Cc1ccccc1)NC(=O)[C@@H](NC(=O)CNC(=O)[C@H](CCC(=O)O)NC(=O)C(C)(C)NC(=O)[C@@H](N)Cc1ccc(O)cc1)[C@@H](C)O)[C@@H](C)O)[C@@H](C)CC)C(C)C)C(=O)N[C@@H](CCCCNC(=O)[C@@H](N)CCCCNC(=O)CC[C@H](NC(=O)CC[C@H](NC(=O)CC[C@H](NC(=O)CC[C@H](NC(=O)CC[C@H](NC(=O)CC[C@H](NC(=O)CCCCCCCCCCCCCCCCCCC(=O)O)C(=O)O)C(=O)O)C(=O)O)C(=O)O)C(=O)O)C(=O)O)C(=O)NCC(=O)NCC(=O)N1CCC[C@H]1C(=O)N[C@@H](CO)C(=O)N[C@@H](CO)C(=O)NCC(=O)N[C@@H](C)C(=O)N[C@@H](CO)C(=O)N[C@@H](CC(C)C)C(=O)N[C@@H](CCCNC(=N)N)C(=O)N[C@@H](Cc1c[nH]cn1)C(=O)N[C@@H](Cc1ccc(O)cc1)C(=O)N[C@@H](CC(C)C)C(=O)N[C@@H](CC(N)=O)C(=O)N[C@@H](Cc1c[nH]c2ccccc12)C(=O)N[C@@H](CC(C)C)C(=O)N[C@H](C(=O)N[C@@H](CCCNC(=N)N)C(=O)N[C@@H](CCC(N)=O)C(=O)N[C@@H](CCCNC(=N)N)C(=O)N[C@@H](Cc1ccc(O)cc1)C(N)=O)[C@@H](C)O [Compound 86, Y-Aib-E-G-T-F-T-S-D-Y-S-I-Aib-L-E-K-Q-A-Q-Aib-A-F-V-E-W-L-I-K(1,3)-GGPSSGASLRHYLNWLTRQRY-NH2.C20DA-gGlu-gGlu-gGlu-gGlu-gGlu-gGlu-eLys(1,2)] | 0.25 | 0.48 | 1.61 | – | 53.1 | –
2 | H-Y[Aib]EGTFTSDYSI[Aib]LEKQAQ[Aib]AFVEWLIK([εLys-γGlu-γGlu-γGlu-γGlu-γGlu-γGlu-C20 diacid])GGPSSGVSLRHYYNWLTRQRY-NH2 [Compound 96, Y-Aib-E-G-T-F-T-S-D-Y-S-I-Aib-L-E-K-Q-A-Q-Aib-A-F-V-E-W-L-I-K(1,3)-GGPSSGVSLRHYYNWLTRQRY-NH2.C20DA-gGlu-gGlu-gGlu-gGlu-gGlu-gGlu-eLys(1,2)] | 0.14 | 0.19 | 1.07 | – | 44.8 | 2.12
3 | H-Y[Aib]EGTFTSDYSI[Aib]LEKQAQ[Aib]AFVEWLIK([εLys-γGlu-γGlu-γGlu-γGlu-γGlu-γGlu-C20 diacid])GGPSSPQSLRHYYNWLTRQRY-NH2 [Compound 41, Y-Aib-E-G-T-F-T-S-D-Y-S-I-Aib-L-E-K-Q-A-Q-Aib-A-F-V-E-W-L-I-K(1,3)-GGPSSPQSLRHYYNWLTRQRY-NH2.C20DA-gGlu-gGlu-gGlu-gGlu-gGlu-gGlu-eLys(1,2)] | 0.06 | 0.07 | 0.62 | 10.2 | 34.6 | –
4 | H-Y[Aib]EGTFTSDYSI[Aib]LEKQAQ[Aib]AFVQWLIK([εLys-γGlu-γGlu-γGlu-γGlu-γGlu-C18 diacid])GGPSEGASLRHYYNWLTRQRY-NH2 [Compound 267, Y-Aib-E-G-T-F-T-S-D-Y-S-I-Aib-L-E-K-Q-A-Q-Aib-A-F-V-Q-W-L-I-K(1,3)-GGPSEGASLRHYYNWLTRQRY-NH2.C18DA-gGlu-gGlu-gGlu-gGlu-gGlu-eLys(1,2)] | 0.07 | 0.12 | 1.18 | – | 27.6 | –
5 | I: H-Y[Aib]EGTFTSDYSI[Aib]LEKQAQ[Aib]AFVQWLIKGGPEEGASLRHYYNWLTRQRY-NH2 / II: {C18 diacid}-EEEEE[εLys] (amide I:28-II:C) [Compound 155, Y-Aib-E-G-T-F-T-S-D-Y-S-I-Aib-L-E-K-Q-A-Q-Aib-A-F-V-Q-W-L-I-K(1,3)-GGPEEGASLRHYYNWLTRQRY-NH2.C18DA-E-E-E-E-E-eLys(1,2)] | 0.15 | 0.14 | 1.43 | 17 | – | 7.18
6 | H-Y[Aib]EGTFTSDYSI[Aib]LEEQAQ[Aib]AFVEWLIK([εLys-γGlu-γGlu-γGlu-γGlu-γGlu-γGlu-C20 diacid])GGPSSGQSLRHYYNWLTRQRY-NH2 [Compound 31, Y-Aib-E-G-T-F-T-S-D-Y-S-I-Aib-L-E-E-Q-A-Q-Aib-A-F-V-E-W-L-I-K(1,3)-GGPSSGQSLRHYYNWLTRQRY-NH2.C20DA-gGlu-gGlu-gGlu-gGlu-gGlu-gGlu-eLys(1,2)] | 0.06 | 0.15 | – | 13.4 | – | –

Continued, values first:

Row | EC50 [1, 4] [nM] | EC50 [2, 5] [nM] | EC50 [2, 6] [nM] | EC50 [3, 7] [nM] | EC50 [3, 8] [nM] | EC50 [1, 9] [nM] | Compound
7 | 0.18 | 0.28 | 1.37 | 46 | – | – | H-Y[Aib]EGTFTSDYSI[Aib]LEKQAQ[Aib]AFVEWLIK([εLys-γGlu-γGlu-γGlu-γGlu-γGlu-γGlu-C20 diacid])GGPSSGASLRHY[Aib]NWLTRQRY-NH2 [Compound 184, Y-Aib-E-G-T-F-T-S-D-Y-S-I-Aib-L-E-K-Q-A-Q-Aib-A-F-V-E-W-L-I-K(1,3)-G-G-P-S-S-G-A-S-L-R-H-Y-Aib-N-W-L-T-R-Q-R-Y-NH2.C20DA-gGlu-gGlu-gGlu-gGlu-gGlu-gGlu-eLys(1,2)]
8 | 0.29 | 0.68 | – | 30.4 | 197 | – | CC[C@H](C)[C@H](NC(=O)[C@H](CC(C)C)NC(=O)[C@H](Cc1c[nH]c2ccccc12)NC(=O)[C@H](CCC(N)=O)NC(=O)[C@@H](NC(=O)[C@H](Cc1ccccc1)NC(=O)[C@H](CCC(=O)O)NC(=O)C(C)(C)NC(=O)[C@H](CCC(N)=O)NC(=O)[C@H](C)NC(=O)[C@H](CCC(N)=O)NC(=O)[C@H](CCCCN)NC(=O)[C@H](CCC(=O)O)NC(=O)[C@H](CC(C)C)NC(=O)C(C)(C)NC(=O)[C@@H](NC(=O)[C@H](CO)NC(=O)[C@H](Cc1ccc(O)cc1)NC(=O)[C@H](CC(=O)O)NC(=O)[C@H](CO)NC(=O)[C@@H](NC(=O)[C@H](Cc1ccccc1)NC(=O)[C@@H](NC(=O)CNC(=O)[C@H](CCC(=O)O)NC(=O)C(C)(C)NC(=O)[C@@H](N)Cc1ccc(O)cc1)[C@@H](C)O)[C@@H](C)O)[C@@H](C)CC)C(C)C)C(=O)N[C@@H](CCCCNC(=O)[C@H](CCC(=O)O)NC(=O)[C@H](CCC(=O)O)NC(=O)[C@H](CCC(=O)O)NC(=O)[C@H](CCC(=O)O)NC(=O)[C@H](CCC(=O)O)NC(=O)CCCCCCCCCCCCCCCCC(=O)O)C(=O)NCC(=O)NCC(=O)N1CCC[C@H]1C(=O)N[C@@H](CO)C(=O)N[C@@H](CCC(=O)O)C(=O)NCC(=O)N[C@@H](C)C(=O)N[C@@H](CO)C(=O)N[C@@H](CC(C)C)C(=O)N[C@@H](CCCNC(=N)N)C(=O)N[C@@H](Cc1c[nH]cn1)C(=O)N[C@@H](Cc1ccc(O)cc1)C(=O)N[C@@H](Cc1ccc(O)cc1)C(=O)N[C@@H](CC(N)=O)C(=O)N[C@@H](Cc1c[nH]c2ccccc12)C(=O)N[C@@H](CC(C)C)C(=O)N[C@H](C(=O)N[C@@H](CCCNC(=N)N)C(=O)N[C@@H](CCC(N)=O)C(=O)N[C@@H](CCCNC(=N)N)C(=O)N[C@@H](Cc1ccc(O)cc1)C(N)=O)[C@@H](C)O [Compound 176, Y-Aib-E-G-T-F-T-S-D-Y-S-I-Aib-L-E-K-Q-A-Q-Aib-E-F-V-Q-W-L-I-K(1,3)-GGPSEGASLRHYYNWLTRQRY-NH2.C18DA-E-E-E-E-E(1,2)]
9 | 0.1 | 0.35 | 1.56 | > 99.9 | 563 | 1.39 | H-Y[Aib]EGTFTSDYSI[Aib]LEKQAQ[Aib]AFVEWLIK([εLys-γGlu-γGlu-γGlu-γGlu-γGlu-γGlu-C20 diacid])GGPSSGIELRHFLNHLTRQRY-NH2 [Compound 2, Y-Aib-E-G-T-F-T-S-D-Y-S-I-Aib-L-E-K-Q-A-Q-Aib-A-F-V-E-W-L-I-K(1,3)-GGPSSGIELRHFLNHLTRQRY-NH2.C20DA-gGlu-gGlu-gGlu-gGlu-gGlu-gGlu-eLys(1,2)]
